The text below walks through data of patent US20220370545A1, “INTEGRIN RECEPTOR ALPHA V BETA 3 AND ITS LIGAND INVOLVED IN CHRONIC ITCH” (North Carolina State University, priority 2019, published 2022).

One data set deals with T1, TRPV1 receptor (Mus musculus, UniProt Q704Y3).
T1 construct: endogenous in cells; host or cells: primary mouse dorsal root ganglion neurons
Kind of data set: Capsaicin-induced calcium response in DRG neurons (specificity control). The following applies: capsaicin 1 μM. It is filed as cell-based. The protocol: (§1) Before imaging, cells were incubated in 350 μL of complete media containing 1 μM Fura-2 AM (Enzo Life Sciences, Farmingdale, New York, United States of America) for 30 min at 37° C. with 5% CO2. During imaging, the cells were perfused with a buffer containing the following: 135 mM sodium chloride, 3.2 mM potassium chloride, 2.5 mM magnesium chloride, 2.8 mM calcium chloride, 667 μM monobasic sodium phosphate, 14.2 mM sodium bicarbonate, and 10.9 mM D-glucose (all from VWR International, Radnor, Pennsylvania, United States of America) with a pH between 7.00 and 7.40. The buffer and the holding plate were kept at 37° C. while imaging. Imaging data was collected on a TE200 inverted microscope using NIS Elements software (Nikon, Melville, New York, United States of America). Cells were exposed to 340 nm and 380 nm wavelengths for 100 ms and the A340/A380 ratio was calculated. Traces were analyzed using Excel and responses greater than 10% of the baseline were counted. Each data point in the scatter plots represented one coverslip.
(§2) Calcium Imaging: Calcium imaging will be performed on the DRG neurons as previously described (Pitake et al., 2018). Briefly, DRG neurons will be incubated for longer than 30 min in DMEM containing 1 μM of a fluorescent indicator Fura-2 AM (Enzo Life Sciences, Inc., Farmingdale, N.Y., United States of America). The neurons will be perfused in a standard bath solution containing 140 mM NaCl, 5 mM KCl, 2 mM MgCl2, 2 mM CaCl2, 10 mM Hepes and 10 mM D-glucose at pH 7.4 adjusted with NaOH. A calcium-free bath solution will be prepared by omitting 2 mM CaCl2 from the standard bath solution […] adding 5 mM EGTA. Fura-2 fluorescence excited at 340 and 380 nm and emission will be monitored at 510 nm with a digital CCD camera (Andor Clara DR-4152, Andor Technology Ltd, Belfast, United Kingdom). Data will be obtained by every 100 ms using an imaging software (NIS-Elements AR 4.13.04, Nikon Corporation, Tokyo, Japan) and analyzed by Microsoft Excel (Microsoft Corporation, Redmond, Wash., United States of America). Values of calcium responses will be normalized by dividing measured values (F) with average values of initial 5 frames (F0) of each cell and described as F/F0. In this study, changes in each response to an application with F/F0>0.1 will be regarded as positive. Cells not responding to 100 mM KCl, which is applied at the end of each experiment, will be regarded as non-neuronal cells and excluded from analysis.
Additional inhibitors were studied using the calcium imaging method described in Example 3. Briefly, the Fura2-AM calcium imaging method was performed on live dorsal root ganglia (DRG) neurons (ex vivo). The DRG neurons are pre-incubated with the inhibitors P11 (Catalog #4744, Tocris Bioscience, Bristol, United Kingdom) and LM609 (Catalog #MAB1876, Millipore Sigma, Burlington, Mass., United States of America) or vehicle for 10 minutes and further stimulated with periostin or capsaicin in the presence of inhibitors. For Echistatin (Catalog #3202/100U, R&D Biosystems, Minneapolis, Minn., United States of America), MK-0429, and SB273005 (Catalog #S75-40, Selleck Chemicals Llc, Houston, Tex., United States of America), the DRG neurons were perfused with a normal Locke buffer vehicle or modified Locke buffer as described below. The values were normalized with KCl ([…]) to identify neuronal responses in all the calcium response data below.

For data set [1], the system named is Integrin αvβ3 on DRG Sensory Neurons. Nature of the data set: Fura-2 calcium imaging of periostin-induced calcium response in cultured DRG sensory neurons. It is filed as cell-based, mouse. The procedure:
DRGs were isolated from mice and dissociated in 1 mL of media containing 2.5 U/mL of dispase (Fisher Scientific, Hampton, New Hampshire, United States of America) and 2.5 mg/mL of collagenase (Fisher Scientific, Hampton, New Hampshire, United States of America). After dissociation, the cells were washed with complete media (DMEM (HiMedia Laboratories, Mumbai, India) with 10% FBS (Atlanta Biologicals, Flowery Branch, Georgia, United States of America) and 1% PenStrep (VWR International, Radnor, Pa., United States of America)) and pelleted at 1000 rpm for 15 minutes. Approximately 30 μL of the cell suspension was plated on 18 mm round glass slides with a coating of laminin (Sigma Aldrich, St. Louis, Miss., United States of America) and poly-L-lysine (Sigma Aldrich, St. Louis, Miss., United States of America) and incubated for 1.5 hours. Afterwards, 1 mL of complete media was added, and the cells were incubated overnight. All incubation steps were done at 37° C. with 5% CO2.
as §1, §2
Periostin (10 ug/ml) will be used to evoke calcium influx. This response has been optimized. The peptide inhibitors will be tested on DRG neurons to measure calcium influx in response to periostin. Data on calcium imaging will be presented by presenting each mouse±SEM. The IC50 value of the inhibitor will also be determined
Additional inhibitors were studied using the calcium imaging method described in Example 3. Briefly, the Fura2-AM calcium imaging method was performed on live dorsal root ganglia (DRG) neurons (ex vivo). […]

For data set [2], the system named is murine keratinocyte cell line (Balb/MK2). Nature of the data set: TSLP-induced periostin production in Balb/MK2 keratinocytes (ELISA). It counts as cell-based, mouse. The conditions noted are these: for TSLP-induced periostin release: pre-exposed 4 hrs to 10 μmol/l inhibitor, then TSLP 10 ng/ml for 24 h. The procedure:
The murine keratinocyte cell line (Balb/MK2) was used in this study to determine the periostin production induced by TSLP. Cells were cultured in EMEM medium according to the previously described method (Fukuyama et al., 2018). Confluent cells were exposed to TSLP at 1 or 10 ng/ml in FBS-free medium for 24 hrs. Inhibitory effect of the JAK2 inhibitor, SD 1008 and the STAT3 inhibitor, niclosamide, on TSLP-induced periostin production was also quantified using the murine Balb/MK2 keratinocyte cell line. Confluent cells were pre-exposed for 4 hrs to SD 1008 (10 μmol/l) or niclosamide (10 μmol/l), before being exposed to the TSLP at 10 ng/ml for a further 24 h. After TSLP exposure, periostin levels in cell supernatant were determined by ELISA according to the manufacturer's instructions.
On the technique in general: An ELISA detects its analyte on a solid surface through an enzyme-linked reagent.

In data set [3] the test system is NC/Nga mice sensitized with Dermatophagoides farinae HDM. Nature of the data set: House dust mite (HDM) allergic itch model in NC/Nga mice. It counts as in vivo, mouse. The procedure:
C57BL6 mice (Jackson Labs, Ellsworth, Maine, United States of America) were applied daily with MC903 (4 nmol) and vehicle (97% ethanol) after brief anesthesia. Skin thickness was measured using cutimeter as described (Fukuyama et al., 2015). Scratching behavior was video-monitored for 30 min on Day 1 and Day 7. On Day 7 skin was collected from vehicle and MC903 treated mice for the Western Blot (WB) as described below. NC/Nga mice (Charles River, Yokohama, Japan) were sensitized and challenged with house dust mite (HDM) allergen (Dermatophagoides farina, Greer, Lenoir, N.C., United States of Amercia) as described previously (Fukuyama et al., 2018). In short, for sensitization, 30 μl of HDM in mineral oil (10 mg/ml) was applied topically to the clipped back twice weekly supported by tape stripping until visible lesions had developed. After development of visible lesions mice were treated daily either with vehicle cream or betamethasone dipropionate (0.1% in lipoderm, n=8). […] Scratching behavior was video monitored for 60 min period immediately after HDM on day 42. For periostin measurement, mice were sacrificed for determination of periostin in skin on day 43. A portion of back skin tissue were snap-frozen in liquid nitrogen. Briefly, samples were homogenized under liquid nitrogen, and the homogenates were taken in 200 μL RPMI 1640 medium containing 1 mmol/L Pefabloc. The amount of periostin was determined using ELISA according to the manufacturer's instruction.

In a further data set the test system is mouse cornea. Kind of data set: Eye wipes assay (corneal application). It counts as in vivo. The conditions noted are these: wild-type mice, wiping measured for 1 minute. The procedure:
All behavioral experiments were conducted during the light cycle at ambient temperature (23° C.). Behavioral assessment of scratching behavior was conducted as described previously (Mishra et al., 2011). Briefly, mice were injected intradermal into the nape of the neck with periostin (R&D), histamine, and chloroquine (all Millipore-Sigma) as previously described (Shimada and LaMotte, 2008). Compounds were diluted in PBS and the same was used as a vehicle. […] Additionally, cilengitide and periostin were combined together (mix) and injected i.d. into the dorsal neck of mouse. Scratching behavior was recorded for 30 minutes and data was presented in bouts per 30 minutes for mice. […] For eye wipes assay, periostin and capsaicin were dropped on mouse cornea and counted wipes for 1-minute. […] For dog's study, periostin (25 μg/25 μl) was injected in the dorsal neck (s.c.) and behavior was recorded and quantified for 30 minutes as “duration of pruritus manifestation” (DPM), as described earlier (Paps et al., 2016). […] When different raters separately scored a single tape, the ratings indicated high interrater reliability (coefficient of correlation, r>0.95). This method of itch readout in NHP has been used and accepted (Ko and Naughton, 2000). The behavior was recorded for 30 minutes duration and number of scratches quantified. […]

Data set [4] addresses integrin αvβ3 on mouse dorsal root ganglia (DRG) sensory neurons (mouse) (UniProt P43406). Nature of the data set: cell-based or functional assay.

Ends that are not written are not given here.

T1 sequence (Q704Y3 whole entry): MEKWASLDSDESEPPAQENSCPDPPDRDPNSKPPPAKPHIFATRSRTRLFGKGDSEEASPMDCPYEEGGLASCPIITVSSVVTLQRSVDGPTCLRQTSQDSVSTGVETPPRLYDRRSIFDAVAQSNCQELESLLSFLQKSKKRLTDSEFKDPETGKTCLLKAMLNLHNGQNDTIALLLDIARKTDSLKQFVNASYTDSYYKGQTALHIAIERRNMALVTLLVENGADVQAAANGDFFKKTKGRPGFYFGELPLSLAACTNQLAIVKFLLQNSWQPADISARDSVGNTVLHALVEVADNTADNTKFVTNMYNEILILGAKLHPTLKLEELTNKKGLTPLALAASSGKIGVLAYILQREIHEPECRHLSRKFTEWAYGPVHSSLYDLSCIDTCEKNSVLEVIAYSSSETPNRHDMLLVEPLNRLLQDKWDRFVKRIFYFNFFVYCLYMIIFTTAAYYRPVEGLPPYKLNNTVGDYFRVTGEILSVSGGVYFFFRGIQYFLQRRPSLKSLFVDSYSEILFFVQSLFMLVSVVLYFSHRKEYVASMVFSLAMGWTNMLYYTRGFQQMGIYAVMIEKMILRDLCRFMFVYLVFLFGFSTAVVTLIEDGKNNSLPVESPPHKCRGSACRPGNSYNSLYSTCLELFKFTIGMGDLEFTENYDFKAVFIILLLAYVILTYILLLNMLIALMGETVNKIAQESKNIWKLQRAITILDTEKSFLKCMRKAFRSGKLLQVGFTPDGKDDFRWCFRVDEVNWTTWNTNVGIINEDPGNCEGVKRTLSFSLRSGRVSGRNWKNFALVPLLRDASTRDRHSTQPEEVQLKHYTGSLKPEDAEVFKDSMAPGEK
integrin αvβ3 on mouse dorsal root ganglia (DRG) sensory neurons (mouse), sequence (P43406 31-1044, chain 1 of 2): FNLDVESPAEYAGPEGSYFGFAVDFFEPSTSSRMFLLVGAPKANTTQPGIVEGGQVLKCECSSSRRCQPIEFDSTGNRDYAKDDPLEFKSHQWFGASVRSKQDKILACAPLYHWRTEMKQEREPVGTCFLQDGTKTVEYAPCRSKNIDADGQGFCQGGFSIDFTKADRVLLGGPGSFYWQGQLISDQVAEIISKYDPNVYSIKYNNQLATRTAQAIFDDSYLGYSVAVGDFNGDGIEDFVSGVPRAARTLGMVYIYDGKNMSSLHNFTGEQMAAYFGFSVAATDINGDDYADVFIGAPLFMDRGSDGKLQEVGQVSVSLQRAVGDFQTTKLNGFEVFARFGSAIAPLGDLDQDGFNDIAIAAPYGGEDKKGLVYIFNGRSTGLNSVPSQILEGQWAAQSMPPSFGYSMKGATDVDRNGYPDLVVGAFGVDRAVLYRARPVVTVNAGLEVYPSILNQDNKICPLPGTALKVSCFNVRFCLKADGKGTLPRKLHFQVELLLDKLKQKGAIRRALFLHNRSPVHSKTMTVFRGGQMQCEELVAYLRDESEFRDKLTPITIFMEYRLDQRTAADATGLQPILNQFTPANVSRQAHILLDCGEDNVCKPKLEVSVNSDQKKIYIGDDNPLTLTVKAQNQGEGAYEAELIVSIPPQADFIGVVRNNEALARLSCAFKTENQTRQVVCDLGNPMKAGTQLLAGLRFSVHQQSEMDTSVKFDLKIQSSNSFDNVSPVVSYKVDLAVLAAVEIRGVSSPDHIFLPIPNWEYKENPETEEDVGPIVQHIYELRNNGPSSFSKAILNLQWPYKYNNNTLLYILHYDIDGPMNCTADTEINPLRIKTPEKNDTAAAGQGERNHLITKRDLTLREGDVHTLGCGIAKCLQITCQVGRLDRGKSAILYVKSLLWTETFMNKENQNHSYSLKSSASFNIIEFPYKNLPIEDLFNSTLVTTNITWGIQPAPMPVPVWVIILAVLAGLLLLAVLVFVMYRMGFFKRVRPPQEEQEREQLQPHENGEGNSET
integrin αvβ3 on mouse dorsal root ganglia (DRG) sensory neurons (mouse), sequence (O54890 26-787, chain 2 of 2, further chain): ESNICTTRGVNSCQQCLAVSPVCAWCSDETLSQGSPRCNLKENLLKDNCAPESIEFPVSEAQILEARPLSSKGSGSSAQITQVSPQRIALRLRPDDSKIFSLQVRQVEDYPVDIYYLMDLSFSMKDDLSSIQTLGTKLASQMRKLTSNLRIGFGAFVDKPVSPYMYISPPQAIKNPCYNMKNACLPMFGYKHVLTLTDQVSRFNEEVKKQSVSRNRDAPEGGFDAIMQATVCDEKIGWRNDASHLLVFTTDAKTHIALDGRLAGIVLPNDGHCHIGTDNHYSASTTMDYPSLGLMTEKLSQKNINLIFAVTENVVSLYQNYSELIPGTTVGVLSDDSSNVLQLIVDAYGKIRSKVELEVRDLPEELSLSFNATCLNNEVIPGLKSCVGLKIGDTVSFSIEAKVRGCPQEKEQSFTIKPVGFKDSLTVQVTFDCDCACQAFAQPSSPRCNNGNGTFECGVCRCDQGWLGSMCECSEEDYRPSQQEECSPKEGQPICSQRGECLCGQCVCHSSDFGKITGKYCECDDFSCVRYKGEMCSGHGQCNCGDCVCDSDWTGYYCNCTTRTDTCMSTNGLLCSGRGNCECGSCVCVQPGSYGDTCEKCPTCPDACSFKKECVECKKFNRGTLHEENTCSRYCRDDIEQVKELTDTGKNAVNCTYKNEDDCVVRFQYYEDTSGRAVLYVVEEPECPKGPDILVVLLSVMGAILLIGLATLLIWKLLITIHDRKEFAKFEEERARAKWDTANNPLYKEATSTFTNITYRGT

In the case of `COc1ccc([C@H](CC(=O)O)N2CCN(CCCc3ccc4c(n3)NCCC4)C2=O)cn1` [MK-0429, (S)-3-(6-methoxypyridin-3-yl)-3-(2-oxo-3-(3-(5,6,7,8-tetrahydro-1,8-naphthyridin-2-yl)propyl)-imidazol-idin-1-yl)propanoic acid], the capsaicin response result at TRPV1 receptor (MK-0429 80 nM or 160 nM) was “no changes”. Further, the “periostin response (calcium influx)” value in data set [1] (higher concentration of MK-0429 (160 nM)) was “significant reduction”.
As for `CNc1cccc(CCOc2ccc3c(c2)CN(CC(F)(F)F)C(=O)[C@H](CC(=O)O)C3)n1` [SB273005, (S)-2-(8-(2-(6-(methylamino)pyridin-2-yl)ethoxy)-3-oxo-2-(2,2,2-trifluoroethyl)-2,3,4,5-tetrahydro-1H-benzo-[c]azepin-4-yl)acetic acid], on TRPV1 receptor (SB273005 11 nM or 20 nM), the capsaicin response entry is reported as “No changes”. The “reduction of periostin-induced calcium response” value in data set [1] (SB273005 11 nM, trend, not statistically significant) is on record as “about 40%”. The periostin-induced calcium response result in data set [1] (SB273005 higher concentration (20 nM)) is listed as “significant reduction”.
On to `COC(=O)[C@@H]1[C@H](C(=O)OC)[C@H]2C=CC(=O)[C@@H]1N2Cc1ccccc1` [SD 1008], for which, in data set [2], the TSLP-induced periostin release entry was “blocked”.
On to `COc1ccc2c(c1)CC[C@@H]1[C@@H]2CC[C@]2(C)[C@@H](NCCCCCCN3C(=O)C=CC3=O)CC[C@@H]12` [U73122], for which, in data set [1] (phospholipase C inhibitor U73122 1 μM), the periostin-induced calcium response entry was “not affected”.
On to `CCC(=O)OCC(=O)[C@@]1(OC(=O)CC)[C@@H](C)C[C@H]2[C@@H]3CCC4=CC(=O)C=C[C@]4(C)[C@@]3(F)[C@@H](O)C[C@@]21C` [betamethasone dipropionate], for which the HDM-induced scratching result in data set [3] (betamethasone dipropionate 0.1% in lipoderm topically, day 42) is on record as “reduced”. Besides, the periostin skin levels entry in data set [3] (betamethasone dipropionate 0.1% in lipoderm topically, skin ELISA day 43) is on record as “reduced significantly”. In addition, the body weight entry in data set [3] (daily betamethasone dipropionate 0.1%, application reduced to every other day on day 26) was “significant weight loss”.
For `COc1cc(CNC(=O)CCCC/C=C/C(C)C)ccc1O` [capsaicin], in the data set on mouse cornea, the “eye-wiping response to ocular application” value is “robust eye-wipe behavior”.
For `O=C1OC2(c3ccccc31)c1ccc(O)c(O)c1Oc1c2ccc(O)c1O` [gallein], the periostin-induced calcium response result in data set [1] (Gβγ blocker gallein 100 μM) is on record as “not affected”.
Turning to `O=C(Nc1ccc([N+](=O)[O-])cc1Cl)c1cc(Cl)ccc1O` [niclosamide], the TSLP-induced periostin release entry in data set [2] is “blocked”.
As for Echistatin, at TRPV1 receptor (in presence of Echistatin), the capsaicin response result is reported as “remains unaffected”. Moreover, the “reduction in periostin-induced calcium influx” value in data set [1] (Echistatin 4 nM) is “around 80%”.
Regarding “His-Ser-Asp-Val-His-Lys-NH2 (HSDVHK-NH2) [P11]”, the capsaicin response result in the data set with TRPV1 receptor (P11 pre-treatment) is recorded as “no change”. The “reduction in periostin-induced calcium influx” value in data set [1] (P11 50 μg/ml, 10 minutes pre-incubation) is listed as “about 78%”.
The molecule “Recombinant Mouse Periostin (from UniProt Q62009 24-811) (ligand)” had an inward current in SST-positive DRG neurons in response to periostin (10 µg/ml), whole-cell patch clamp in data set [4] of 58.4 pA.

B1: TSLP: Th2 cytokine thymic stromal lymphopoietin, recombinant mouse (protein, UniProt Q9JIE6 20-140, looked up)
Thymic stromal lymphopoietin: YNFSNCNFTSITKIYCNIIFHDLTGDLKGAKFEQIEDCESKPACLLKIEYYTLNPIPGCPSLPDKTFARRTREALNDHCPGYPETERNDGTQEMAQEVQNICLNQTSQILRLWYSFMQSPE
On to B1, for which the “release of periostin from keratinocytes” value in data set [2] (TSLP 1 and 10 ng/ml, 24 hrs) is listed as “induced the release of periostin”.
